From patent US11415493B2, “Detection of cells in a liquid sample” (DELTA INSTRUMENTS B.V., priority 2016, dated 2022)

Assays:
bacteria in raw milk [1] = assay: IBC in 24 h old raw bulk milk, staining composition with Savinase, flow cytometer; format: cell-based; details: 68° C., 1 minute
Method: To verify this method with Savinase®, locally obtained raw bulk tank milk from a dairy plant was collected. […] An amount of 200 μl bacterial culture is added to a 45 ml volume of 24 h old raw bulk milk and kept at 4° C. until analyzed. The staining composition comprising GelGreenTM as the nucleic acid dye was prepared in the same way as in Example 5, except that the Alcalase® protease was replaced by 0.12 KNPU/ml Savinase® […] protease (from Novozymes). 200 μl of unheated raw milk is diluted with the 1800 μl staining composition and incubated at approximately 68° C. for 1 minute; the sample is sonicated for 5 seconds at 40 kHz in the before and after the incubation step and analyzed on the flow cytometer; the fluorescent signals from the bacteria were detected and a count per unit volume was determined. Traditional plate counts were used to obtain a bacterial reference count. As used herein, the term “traditional plate counts”, refers to Petrifilm Aerobic Count Plates (AOAC Official Method 986.33). The LOG of individual bacterial count (IBC)/ml from 24 h raw milk in the flow cytometer is 5.61, the LOG of CFU/ml petrifilm is 4.83. The LOG of IBC from 24 h raw milk spiked with E. coli LOG in the flow cytometer is 6.48. The LOG of CFU/ml petrifilm is 6.69.

[2] = tested on: Listeria monocytogenes, Staphylococcus aureus, Bacillus cereus, Pseudomonas aeruginosa, Escherichia coil; assay: Validation of flow cytometry counts versus Petrifilm CFU in raw milk spiked with gram positive and gram negative bacteria; format: cell-based; details: raw milk with individual bacterial cultures
Description: A selection of gram negative and gram positive bacteria were chosen to be placed into raw milk and processed and analyzed following the GelGreen™ raw milk treatment staining protocol as disclosed in example 2. The gram positive organisms selected were Listeria monocytogenes (Lm), Staphylococcus aureus (Sa), and Bacillus cereus (Bc). The gram negative organisms selected were Pseudomonas aeruginosa (Pa) and Escherichia coil (Ec). Different concentrations of each culture were placed into a sample of raw milk and kept at 4° C. until processed. Each sample of raw milk with an individual bacterial culture was processed and analyzed following the GelGreen™ protocol as described in example 2. Each sample of raw milk with an individual bacterial culture was appropriately diluted in Butterfield's PBS and 1 mL was plated on Petrifilms in duplicate and CFU/mL were obtained. The resulting Log FCM counts per mL were plotted against the Log Petrifilm CFU per mL.

E. coli = assay: Staining E. coli in spiked raw milk and saline at different temperatures, flow cytometry; format: cell-based, Escherichia coli; details: around 60° C. versus lower temperatures (40, 35, 25, 23° C.), 1 minute, pH 10.6
Method: Both solutions were spiked with E. coli bacteria by adding 200 μl bacterial culture to 45 ml solution. The staining composition was prepared with the same dilution of GelGreen™ (from Biotium) as described in Example 1, but this time into a Tris-saline solution (200 mM Trizma base, 150 mM NaCl, pH 10.6) further comprising 0.12 AU/ml liquid Alcalase® 2.4 L FG (from Novozymes). Incubations were as described in the previous examples, except that spiked raw milk samples were incubated at 60, 40 and 23° C. and spiked saline samples were incubated at 60, 35 and 25° C. for 1 minute. […] Each panel contains four quarters: Q1, Q2, Q3 and Q4. The counts provided in Q4 represent the number of cells given in each of these four quarters. […] The optimal range as disclosed herein is 40 to 70° C., a further preferred range is 60 to 68° C. and a highly preferred temperature point is 62° C.

bacteria in raw milk [3] = assay: IBC in raw milk samples at different pH settings, flow cytometer; format: cell-based
bacteria in raw milk [4] = assay: IBC in raw milk samples at different temperature settings, flow cytometer; format: cell-based
Method: The nucleic acid dyes, Evagreen®, SYTOX® Green and Propidium iodide where tested against GelGreen™ (the reference method). […] Nucleic acid dyes Evagreen®, SYTOX® Green and propidium iodide were tested using the same staining and incubation conditions as for the reference method only differing in the type of dye comprised in the staining composition. Evagreen® was used at a concentration of 1.25 μM in the staining composition. SYTOX® Green and Propidium iodide were used at a concentration of 5 μM in the staining composition. Three different types of milk were used: Locally obtained raw bulk tank milk from a farm and dairy plant where collected at a local farmer. This milk is referred to as fresh raw milk and is not older than 24 hours. 24 hour and 48 hour old milk were obtained from a dairy plant. […] For this purpose E. coli was grown overnight (approx. 15 h) in TSB at 32° C. The dead bacterial where obtained by heating the grown E. coli at 110° C. for 10 minutes. […] All the milk samples are kept at 4° C. until analyzed. […] Finally, the samples were analyzed on the flow cytometer and the fluorescent signals from the bacteria were detected and a count per unit volume was determined. […]
From example 5 it is already clear that temperatures lower than the optimal settings result in decreased DNA staining and so bacteria counting performance. […] Milk samples were kept at 4° C. until analyzed. […]

CN(C)c1ccc2cc3ccc(N(C)C)cc3[n+](CCCCCC(=O)NCCCOCCOCCOCCCNC(=O)CCCCC[n+]3c4cc(N(C)C)ccc4cc4ccc(N(C)C)cc43)c2c1.[I-].[I-] [GelGreen™]
LOG of IBC in the flow cytometer (bacteria in raw milk [1]; 24 h raw milk spiked with E. coli): 6.48
LOG of individual bacterial count (IBC)/ml in the flow cytometer (bacteria in raw milk [1]; 24 h raw milk): 5.61
relationship of Log FCM counts per mL versus Log Petrifilm CFU per mL [2]: overall linear relationship
bacterial cells counted (E. coli): more bacterial cells could be counted
IBC higher compared to the reference method (pH 10.6) (bacteria in raw milk [3]; pH 7.0, fresh milk): more than 1.5 million counts per ml
IBC compared to the reference method (pH 10.6) (bacteria in raw milk [3]; pH 8.7): comparable with the reference method
IBC compared to the 68° C. based reference method (bacteria in raw milk [4]; 40° C., fresh spiked milk): way too low
IBC compared to the 68° C. based reference method (bacteria in raw milk [4]; 90° C., all the samples): slightly higher
